The target in one assay is T1, IRE1α (Homo sapiens, UniProt O75460).
T1 construct: purchased Signal Chem E31-11G
Kind of assay: Biochemical assay: inhibition of RNase activity of IRE1α. The note with it: enzyme 0.325 nM, substrate 100 nM, 20 minutes. Put shortly:
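Recombinant IRE1α (0.325 nM final) pre-incubated 30 min at room temperature with compounds (10-point ½-log series, duplicate, 4% DMSO final). Then 100 nM fluorophore/quencher-labelled RNA substrate added in 50 mM Tris, 0.5 mM MgCl2, 10 mM KCl, 2 mM DTT. Urea stop after 20 min; fluorescence read; IC50 from sigmoidal fit.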

Assay [1] relates to ARPE-19 cells stably expressing XBP1 (a.a. 1-376). The experiment in a line: Cellular XBP1 splicing assay (NanoLuc luciferase, thapsigargin). It counts as cell-based. The note with it: thapsigargin 150 nM. In a few lines:
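ARPE-19 cells carrying an XBP1(1-376)-NanoLuc splicing reporter were pretreated with compound (10-point ½-log series, 0.117% DMSO) for 30 min, then stressed with 150 nM thapsigargin for 4 h at 37° C. Luminescence was read, and IC50 values came from sigmoidal fits of percent inhibition of control.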

This note sets out measurements from patent US20220153734A1, “Pyrazolopyridine Compounds For IRE1 Inhibition” (Optikira, LLC, priority 2019, published 2022).

T1 sequence (O75460 468-977 limits assumed): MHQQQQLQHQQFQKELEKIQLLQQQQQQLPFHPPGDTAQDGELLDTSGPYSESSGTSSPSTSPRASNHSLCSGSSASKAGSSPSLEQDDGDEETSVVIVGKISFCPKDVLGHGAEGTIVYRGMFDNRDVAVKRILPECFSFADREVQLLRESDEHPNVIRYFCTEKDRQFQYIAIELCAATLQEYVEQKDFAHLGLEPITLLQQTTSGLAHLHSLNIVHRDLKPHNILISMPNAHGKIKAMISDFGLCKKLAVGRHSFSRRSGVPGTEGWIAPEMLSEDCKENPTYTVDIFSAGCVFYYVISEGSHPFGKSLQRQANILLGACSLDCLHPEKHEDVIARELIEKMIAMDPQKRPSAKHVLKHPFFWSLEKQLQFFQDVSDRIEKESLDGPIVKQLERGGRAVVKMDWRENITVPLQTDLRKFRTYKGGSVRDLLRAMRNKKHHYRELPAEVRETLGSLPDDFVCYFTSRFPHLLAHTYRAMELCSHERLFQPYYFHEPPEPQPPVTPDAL

For the molecule `COCCN[C@H]1CC[C@H](c2cnc(N)c3c(-c4cc(F)c(NS(=O)(=O)c5ccc(OC)cc5)cc4F)nn(C(C)C)c32)CC1` [Compound A9, N-(4-(4-amino-1-isopropyl-7-((1r,4r)-4-((2-methoxyethyl)amino)cyclohexyl)-1H-pyrazolo[4,3-c]pyridin-3-yl)-2,5-difluorophenyl)-4-methoxybenzenesulfonamide], the IC50 (as a rule, the concentration at which inhibition is half-maximal) was 20 nM at IRE1α and 110 nM in assay [1] (Homo sapiens, ARPE-19, 4 h).

`COCCN[C@H]1CC[C@H](c2cnc(N)c3c(-c4cc(F)c(NS(=O)(=O)c5ccc(Cl)cc5F)cc4F)nn(C(C)C)c32)CC1` [Compound A16, N-(4-(4-amino-1-isopropyl-7-((1r,4r)-4-((2-methoxyethyl)amino)cyclohexyl)-1H-pyrazolo[4,3-c]pyridin-3-yl)-2,5-difluorophenyl)-4-chloro-2-fluorobenzenesulfonamide]: the IC50 at IRE1α amounted to 7.8 nM; in assay [1] (Homo sapiens, ARPE-19, 4 h), 77 nM.

`CC(CF)NC1CC=C(c2cnc(N)c3c(-c4ccc(NS(=O)(=O)Cc5ccccc5Cl)c(F)c4)nn(C(C)C)c23)CC1` (single isomer, unassigned) [Compound B45, N-(4-(4-amino-7-(4-((1-fluoropropan-2-yl)amino)cyclohex-1-en-1-yl)-14sopropyl-1H-pyrazolo[4,3-c]pyridin-3-yl)-2-fluorophenyl)-1-(2-chlorophenyl)methanesulfonamide]: the IC50 at IRE1α is 3.4 nM; in assay [1] (4 hour), 47 nM.

As for `COCCN[C@H]1CC[C@H](c2cnc(N)c3c(-c4cc(F)c(NS(=O)(=O)c5cc(F)ccc5F)cc4F)nn(C(C)C)c32)CC1` [Compound A31, N-(4-(4-amino-1-isopropyl-7-((1r,4r)-4-((2-methoxyethyl)amino)cyclohexyl)-1H-pyrazolo[4,3-c]pyridin-3-yl)-2,5-difluorophenyl)-2,5-difluorobenzenesulfonamide], the IC50 on IRE1α stood at 8.6 nM; in assay [1] (Homo sapiens, ARPE-19, 4 h) it was 39 nM.

Consider `CCn1nc(-c2ccc(NS(=O)(=O)c3ccccc3Cl)c(F)c2)c2c(N)ncc(C3=CCC(NC4COC4)CC3)c21` (racemic) [racemic mixture of B61 & B62, N-(4-(4-amino-1-ethyl-7-(4-(oxetan-3-ylamino)cyclohex-1-en-1-yl)-1H-pyrazolo[4,3-c]pyridin-3-yl)-2-fluorophenyl)-2-chlorobenzenesulfonamide], for which the 50% inhibitory concentration (IC50) on IRE1α came to 40 nM; in assay [1] (Homo sapiens, ARPE-19, 4 h) it was 100 nM.

Take `COCCN(CCOC)[C@H]1CC[C@H](c2cnc(N)c3c(-c4cc(F)c(NS(=O)(=O)c5cccc(C(F)(F)F)c5)cc4F)nn(C(C)C)c32)CC1` [Compound A29, N-(4-(4-amino-7-((1r,4r)-4-(bis(2-methoxyethyl)amino)cyclohexyl)-1-isopropyl-1H-pyrazolo[4,3-c]pyridin-3-yl)-2,5-difluorophenyl)-3-(trifluoromethyl)benzenesulfonamide]: the IC50 worked out at 32 nM at IRE1α and 500 nM in assay [1] (Homo sapiens, ARPE-19, 4 h).

Regarding `CC(C)n1nc(-c2ccc(NS(=O)(=O)c3ccccc3F)c(F)c2)c2c(N)ncc(C3=CCC(NC4COC4)CC3)c21` (single isomer, unassigned) [Compound B58, N-(4-(4-amino-1-isopropyl-7-(4-(oxetan-3-ylamino)cyclohex-1-en-1-yl)-1H-pyrazolo[4,3-c]pyridin-3-yl)-2-fluorophenyl)-2-fluorobenzenesulfonamide], the IC50 against IRE1α was 120 nM; in assay [1] (4 hour) it was 250 nM.

In the case of `CCn1nc(-c2ccc(NS(=O)(=O)Cc3ccccc3Cl)cc2)c2c(N)ncc(C3=CCC(NC4COC4)CC3)c21` (single isomer, unassigned) [Compound B24, N-(4-(4-amino-1-ethyl-7-(4-(oxetan-3-ylamino)cyclohex-1-en-1-yl)-1H-pyrazolo[4,3-c]pyridin-3-yl)phenyl)-1-(2-chlorophenyl)methanesulfonamide], the IC50 at IRE1α was determined as 53 nM; in assay [1] (4 hour), 580 nM.

As for `Nc1ncc([C@H]2CC[C@H](NC3COC3)CC2)c2c1c(-c1ccc(NS(=O)(=O)Cc3ccccc3F)c(F)c1)nn2C1CC1` [Compound A54, N-(4-(4-amino-1-cyclopropyl-7-((1r,4r)-4-(oxetan-3-ylamino)cyclohexyl)-1H-pyrazolo[4,3-c]pyridin-3-yl)-2-fluorophenyl)-1-(2-fluorophenyl)methanesulfonamide], the IC50 against IRE1α worked out at 0.9 nM; in assay [1] (Homo sapiens, ARPE-19, 4 h) it was 9 nM.

As to `COCCN[C@H]1CC[C@H](c2cnc(N)c3c(-c4cc(F)c(NS(=O)(=O)c5ccc(F)cc5Cl)cc4F)nn(C(C)C)c32)CC1` [Compound A15, N-(4-(4-amino-1-isopropyl-7-((1r,4r)-4-((2-methoxyethyl)amino)cyclohexyl)-1H-pyrazolo[4,3-c]pyridin-3-yl)-2,5-difluorophenyl)-2-chloro-4-fluorobenzenesulfonamide], the IC50 against IRE1α worked out at 6.6 nM; in assay [1] (Homo sapiens, ARPE-19, 4 h), 13 nM.

Regarding `COCC(C)N[C@H]1CC[C@H](c2cnc(N)c3c(-c4ccc(NS(=O)(=O)Cc5ccccc5Cl)c(F)c4)nn(C(C)C)c32)CC1` (stereo partly shown) [Compound A58, N-(4-(4-amino-1-isopropyl-7-((1r,4r)-4-((1-methoxypropan-2-yl)amino)cyclohexyl)-1H-pyrazolo[4,3-c]pyridin-3-yl)-2-fluorophenyl)-1-(2-chlorophenyl)methanesulfonamide], the IC50 at IRE1α turned out to be 0.6 nM; in assay [1] (Homo sapiens, ARPE-19, 4 h) it was 4.9 nM.

As for `Cc1ccc(F)c(S(=O)(=O)Nc2ccc(-c3nn(C(C)C)c4c(C5=CCC(NC6COC6)CC5)cnc(N)c34)cc2F)c1` (single isomer, unassigned) [Compound B17, N-(4-(4-amino-1-isopropyl-7-(4-(oxetan-3-ylamino)cyclohex-1-en-1-yl)-1H-pyrazolo[4,3-c]pyridin-3-yl)-2-fluorophenyl)-2-fluoro-5-methylbenzenesulfonamide], the figures for the IC50 (against IRE1α; in assay [1] (4 hour)) were 2.2 nM and 21 nM, respectively.

In the case of `CC(C)n1nc(-c2ccc(NS(=O)(=O)Cc3ccccc3Cl)c(F)c2)c2c(N)ncc(C3=CCC(NC4COC4)CC3)c21` (single isomer, unassigned) [Compound B13, N-(4-(4-amino-1-isopropyl-7-(4-(oxetan-3-ylamino)cyclohex-1-en-1-yl)-1H-pyrazolo[4,3-c]pyridin-3-yl)-2-fluorophenyl)-1-(2-chlorophenyl)methanesulfonamide], the IC50 at IRE1α amounted to 5.2 nM; in assay [1] (4 hour) it was 90 nM.

For `CCn1nc(-c2ccc(NS(=O)(=O)c3ccccc3F)c(F)c2)c2c(N)ncc(C3=CCC(NC4COC4)CC3)c21` (single isomer, unassigned) [Compound B33, N-(4-(4-amino-1-ethyl-7-(4-(oxetan-3-ylamino)cyclohex-1-en-1-yl)-1H-pyrazolo[4,3-c]pyridin-3-yl)-2-fluorophenyl)-2-fluorobenzenesulfonamide], the IC50 on IRE1α came out at 60 nM; in assay [1] (4 hour), 100 nM.

On to `COCC(C)NC1CC=C(c2cnc(N)c3c(-c4ccc(NS(=O)(=O)Cc5ccccc5Cl)c(F)c4)nn(C(C)C)c23)CC1` (single isomer, unassigned) [Compound B5, N-(4-(4-amino-1-isopropyl-7-(4-((1-methoxypropan-2-yl)amino)cyclohex-1-en-1-yl)-1H-pyrazolo[4,3-c]pyridin-3-yl)-2-fluorophenyl)-1-(2-chlorophenyl)methanesulfonamide], for which the concentration for half-maximal inhibition (IC50) at IRE1α was determined as 1.2 nM; in assay [1] (4 hour), 6.5 nM.

On to `COCCN(CCOC)[C@H]1CC[C@H](c2cnc(N)c3c(-c4cc(F)c(NS(=O)(=O)c5ccccc5F)cc4F)nn(C(C)C)c32)CC1` [Compound A35, N-(4-(4-amino-7-((1r,4r)-4-(bis(2-methoxyethyl)amino)cyclohexyl)-1-isopropyl-1H-pyrazolo[4,3-c]pyridin-3-yl)-2,5-difluorophenyl)-2-fluorobenzenesulfonamide], for which the IC50 against IRE1α turned out to be 60 nM; in assay [1] (Homo sapiens, ARPE-19, 4 h), 55 nM.

On to `CC(CF)NC1CC=C(c2cnc(N)c3c(-c4ccc(NS(=O)(=O)Cc5ccccc5Cl)c(F)c4)nn(C(C)C)c23)CC1` (single isomer, unassigned) [Compound B44, N-(4-(4-amino-7-(4-((1-fluoropropan-2-yl)amino)cyclohex-1-en-1-yl)-1-isopropyl-1H-pyrazolo[4,3-c]pyridin-3-yl)-2-fluorophenyl)-1-(2-chlorophenyl)methanesulfonamide], for which the figures for the IC50 (at IRE1α; in assay [1] (4 hour)) were 1.6 nM and 10 nM, respectively.

`CC(C)n1nc(-c2cc(F)c(NS(=O)(=O)Cc3ccccc3F)cc2F)c2c(N)ncc([C@H]3CC[C@H](N(C)C)CC3)c21` [Compound A22, N-(4-(4-amino-7-((1r,4r)-4-(dimethylamino)cyclohexyl)-1-isopropyl-1H-pyrazolo[4,3-c]pyridin-3-yl)-2,5-difluorophenyl)-1-(2-fluorophenyl)methanesulfonamide]: the concentration for half-maximal inhibition (IC50) against IRE1α is 1.8 nM; in assay [1] (Homo sapiens, ARPE-19, 4 h), 15 nM.

With `COCCN[C@H]1CC[C@H](c2cnc(N)c3c(-c4cc(F)c(NS(=O)(=O)c5cc(Cl)ccc5F)cc4F)nn(C(C)C)c32)CC1` [Compound A4, N-(4-(4-amino-1-isopropyl-7-((1r,4r)-4-((2-methoxyethyl)amino)cyclohexyl)-1H-pyrazolo[4,3-c]pyridin-3-yl)-2,5-difluorophenyl)-5-chloro-2-fluorobenzenesulfonamide], the IC50 was 1.3 nM against IRE1α and 10 nM in assay [1] (Homo sapiens, ARPE-19, 4 h).

Regarding `Nc1ncc([C@H]2CC[C@H](NC3COC3)CC2)c2c1c(-c1ccc(NS(=O)(=O)c3ccccc3Cl)c(F)c1)nn2C1CC1` [Compound A56, N-(4-(4-amino-1-cyclopropyl-7-((1r,4r)-4-(oxetan-3-ylamino)cyclohexyl)-1H-pyrazolo[4,3-c]pyridin-3-yl)-2-fluorophenyl)-2-chlorobenzenesulfonamide], the IC50 against IRE1α was 3.5 nM; in assay [1] (Homo sapiens, ARPE-19, 4 h) it was 15 nM.
